# Key:
# MES-SA cells = assay: MTT cell viability assay, paclitaxel response; assay type: cell-based, human; details: after transfection with miR-135a mimic, 100 nM paclitaxel
# Procedure: (§1) The paclitaxel-resistant cell lines MES-SA^DX5 and A549^TR were transfected with a scrambled non-targeting miRNA (control) and an miR-135a mimic (mimic), respectively. Cells were subsequently treated with 100 nM paclitaxel and cell viability was assessed using the MTT assay (FIGS. 2A, 2B). The percentage of apoptotic cells was assessed by Annexin V-staining and FACS analysis (FIGS. 2C, 2D). Values are presented as percent cell survival in paclitaxel-treated cells relative to untreated cells. *P<0.05, **P<0.001 as determined by Wilcoxon's rank sum test.
# FIGS. 4A-4E are a series of micrographs and line graphs showing that miR-135a-mediated APC suppression contributes to paclitaxel resistance. MES-SA and A549 cells were mock-transfected (mock), transfected with a scrambled siRNA (siControl) or with siRNA directed against APC (siAPC). […] Transfected A549 (FIG. 4B) and MES-SA (FIG. 4C) cells were treated with paclitaxel and viability was assessed using the MTT assay. […] (FIG. 4E) Both A549-shCON and -shAPC cells were treated with paclitaxel and cell viability was measured using the MTT assay. […]
# (§2) Cell growth inhibition was determined by a 3-(4,5-dimethylthiazol-2-yl)-2,5-diphenyltetrazolium (MTT) bromide assay. […] Absorbance was determined using a 96-well SpectraMax plate reader (Molecular Devices, Sunnyvale, Calif.) at 560 nm and 650 nm (background). […]
# A549 cells = assay: Annexin V staining and FACS analysis of paclitaxel-induced apoptosis; assay type: cell-based, human; details: transfection with miR-135a mimic, 100 nM paclitaxel; P<0.001
# Procedure: as §1
# Annexin V/7-amino-actinomycin D labeling was performed according to the manufacturer's instructions (BD Pharmingen™, San Diego, Calif., USA, 559 763) and samples were analyzed by flow cytometry. Briefly, cells were treated for 48-72 h with either vehicle or 100 nM paclitaxel. Cells were trypsinized and washed with phosphate-buffered saline before resuspending in assay binding buffer. Annexin V and 7-amino-actinomycin labeling was performed at room temperature for 15 min before analysis by flow cytometry (BD FACScan™, San Jose, Calif., USA).
# APC 3′-UTR = assay: Luciferase reporter fused to APC 3'-UTR; assay type: cell-based, human; details: 30 nM miR-135a mimic
# Excerpt: FIGS. 3A-3E are a series of bar graphs showing that miR-135a modulates APC expression in paclitaxel-resistant cancer cells. MES-SA (FIG. 3A) or A549 (FIG. 3B) cells were transfected with a luciferase reporter construct fused to APC 3′-UTR or a control luciferase reporter vector with a random 3′-UTR (random UTR). Subsequently, cells were cotransfected with either an miR-135a mimic or a non-targeting miRNA control (control miRNA). Values are shown as the percent of luciferase expression compared with the control. *P<0.01 as determined by Wilcoxon's rank sum test. FIG. 3C: Endogenous APC mRNA expression was quantified by RT-PCR analysis in A549, A549^TR, MES-SA and MES-SA^DX5 cells. Bars represent mean and s.e.m. from duplicate experiments. NS: not significant, **P<0.001 as determined by Wilcoxon's rank sum test. In addition, APC protein expression was examined by western blotting (bottom panel). […]
# Double-stranded RNA oligos representing a mature sequence that mimics endogenous miR-135a, anti-miR-135a designed to inhibit endogenous miR-135a, and anti-miR negative control were all obtained from Ambion™ and were transfected into cell lines at ˜50% confluence at 30 nM concentration with siLentFect (Bio-Rad™). […] The next day, luciferase activity was measured using the Dual-Glo® Luciferase assay system (Promega™, Madison, Wis.). […]
# T824.1 cell line = assay: MTT cell viability assay on in vivo established paclitaxel-sensitive cell line; assay type: cell-based; details: paclitaxel-sensitive cells transfected with miR-135a mimic
# Procedure: (FIG. 7A). The parental A549 cells, a cell line that became refractory during in vivo treatment with paclitaxel (T20.2 round 1) and the same cell line established after yet another round of in vivo paclitaxel treatment (T20.2 reinjection) were treated with paclitaxel and cell viability was assessed using the MTT assay. Represented are average LC50±s.e.m. determined by MTT assay for parental A549 cells (white boxes), **P<0.001, *P<0.05 as determined by Wilcoxon's rank sum test for T20.2 round 1 cells (hatched boxes) and for T20.2 re-injection cells (filled boxes). (FIG. 7B) The expression of miR-135a was examined in these cells by qRT-PCR. *P<0.05 as determined by Wilcoxon's rank sum test. (FIG. 7C) The expression of miR-135a was examined in the cell lines established in vivo. The correlation between paclitaxel response and miR-135a expression was calculated using the Spearman's rank test. […] Subsequently, cells were treated with the indicated concentrations of paclitaxel and cell viability was assessed using the MTT assay. […]
# as §2
substance,measurement,setting,value
"miR-135a mimic: double-stranded RNA oligos representing a mature sequence that mimics endogenous miR-135a, from Ambion (sense GTATTGGGCGCCTGGTCACC; antisense CGGGAAGATGGTGATGG; listed as DNA, chemistry not given here)",cell survival,MES-SA cells,43.6%
same,paclitaxel-induced apoptosis (annexin-positive cells),A549 cells,decreased paclitaxel-induced apoptosis
same,targeting of APC 3' untranslated region (luciferase expression),APC 3′-UTR; A549 cells,targeted the 3′ untranslated region of APC
same,targeting of APC 3' untranslated region (luciferase expression),"APC 3′-UTR; MES-SA cells, P=0.029",targeted the 3′ untranslated region of APC
same,paclitaxel-induced cytotoxicity,T824.1 cell line,suppressed paclitaxel-induced cytotoxicity

# Reference: patent US9687467B2, “Diagnosis and treatment of taxane-resistant cancers” (Children's Medical Center Corporation, priority 2011, dated 2017)
